Assay results as given in patent publication EP2931723B1, “NEW BICYCLIC COMPOUNDS AND THEIR USE AS ANTIBACTERIAL AGENTS AND -LACTAMASE INHIBITORS” (Fedora Pharmaceuticals Inc., priority 2012, dated 2014).

Experiments:
E. coli JMI 4080 = test: MIC, antibacterial and synergistic activity; assay type: cell-based; settings: for MIC Aztreonam + inhibitor / MIC Ceftazidime + inhibitor / MIC Meropenem + inhibitor: E. coli JMI 4080 (Tem-10); for MIC Aztreonam + inhibitor: Aztreonam + inhibitor at 4 µg/mL; for MIC Ceftazidime + inhibitor: Ceftazidime + inhibitor at 4 µg/mL; for MIC Meropenem + inhibitor: Meropenem + inhibitor at 4 µg/mL; for MIC: Escherichia coli, JMI4080, E. coli JMI 4080 (Tem-10), substance alone
E. coli JMI 2692 = test: MIC, antibacterial and synergistic activity; assay type: cell-based; settings: E. coli JMI 2692 (NDM-1, TEM-1, CTX-M-15); for MIC Aztreonam + inhibitor: Aztreonam + inhibitor at 4 µg/mL; for MIC Ceftazidime + inhibitor: Ceftazidime + inhibitor at 4 µg/mL; for MIC Meropenem + inhibitor: Meropenem + inhibitor at 4 µg/mL; for MIC: Escherichia coli, JMI2692, substance alone, read-out: MIC
Procedure: (§1) In the Tables 10 - 12, compounds herein disclosed were tested in combination with various antibiotics against metallo β-lactamase producing bacteria.

K. pneumo JMI 2697 = test: MIC, antibacterial and synergistic activity; assay type: cell-based; settings: K. pneumo JMI 2697 (IMP-4 (Cpase)); for MIC Aztreonam + inhibitor: Aztreonam + inhibitor at 4 µg/mL; for MIC Ceftazidime + inhibitor: Ceftazidime + inhibitor at 4 µg/mL; for MIC Meropenem + inhibitor: Meropenem + inhibitor at 4 µg/mL; for MIC: substance alone
Procedure: as §1

K. pneumo JMI 2693 = test: MIC, antibacterial and synergistic activity; assay type: cell-based; settings: K. pneumo JMI 2693 (NDM-1 (Cpase)); for MIC Aztreonam + inhibitor: Aztreonam + inhibitor at 4 µg/mL; for MIC Ceftazidime + inhibitor: Ceftazidime + inhibitor at 4 µg/mL; for MIC Meropenem + inhibitor: Meropenem + inhibitor at 4 µg/mL; for MIC: substance alone
Procedure: as §1

[1] = system: metallo β-lactamase producing bacteria; test: MIC in combination with various antibiotics against metallo β-lactamase producing bacteria (Tables 10-12); assay type: cell-based; settings: Enterobacter cloacae, agent alone
Procedure: as §1

E.coli JMI 4103 = test: MIC, antibacterial and synergistic activity; assay type: cell-based; settings: E.coli JMI 4103 (KPC-2, Tem-1, CMY-Type); for MIC Aztreonam + inhibitor: Aztreonam + inhibitor at 4 µg/mL; for MIC Ceftazidime + inhibitor: Ceftazidime + inhibitor at 4 µg/mL; for MIC Meropenem + inhibitor: Meropenem + inhibitor at 4 µg/mL; for MIC: Escherichia coli, JMI4103, substance alone
A. baumanii JMI 2659 = test: MIC, antibacterial and synergistic activity; assay type: cell-based; settings: A. baumanii JMI 2659 (Ges-14 (Cpase)); for MIC Aztreonam + inhibitor: Aztreonam + inhibitor at 4 µg/mL; for MIC Ceftazidime + inhibitor: Ceftazidime + inhibitor at 4 µg/mL; for MIC Meropenem + inhibitor: Meropenem + inhibitor at 4 µg/mL; for MIC: Acinetobacter baumannii, JMI2659, substance alone, read-out: MIC
K. pneumo JMI 2673 = test: MIC, antibacterial and synergistic activity; assay type: cell-based; settings: K. pneumo JMI 2673 (CTX-M14 (ESBL)); for MIC Aztreonam + inhibitor: Aztreonam + inhibitor at 4 µg/mL; for MIC Ceftazidime + inhibitor: Ceftazidime + inhibitor at 4 µg/mL; for MIC Meropenem + inhibitor: Meropenem + inhibitor at 4 µg/mL
In short: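 Antibacterial synergy was assessed by testing a β-lactamase inhibitor compound in combination with antibiotics. The inhibitor was held at a fixed concentration of 4 µg/mL, and the minimum inhibitory concentration of the partner antibiotic was determined in its presence.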

P. aerug JMI 2686 = test: MIC, antibacterial and synergistic activity; assay type: cell-based; settings: P. aerug JMI 2686 (KPC-2 (Cpase)); for MIC Aztreonam + inhibitor: Aztreonam + inhibitor at 4 µg/mL; for MIC Ceftazidime + inhibitor: Ceftazidime + inhibitor at 4 µg/mL; for MIC Meropenem + inhibitor: Meropenem + inhibitor at 4 µg/mL
In short: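 This antibacterial synergy assay measured the minimum inhibitory concentration of antibiotics combined with the disclosed inhibitor compounds. The inhibitor was held at 4 µg/mL throughout. The aim was to see whether the added compound strengthened the antibiotic's action against the tested bacteria.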

CMY-2 = CMY-2 (Klebsiella pneumoniae, UniProt Q48434); test: β-lactamase inhibitory activity, spectrophotometric nitrocefin assay; assay type: biochemical; settings: nitrocefin as substrate
Procedure: (§2) The inhibitory activities of compounds herein disclosed against various enzymes were measured by spectrophotometric assay using […] and using nitrocefin as a substrate [J. Antimicrob. Chemother., 28, pp 775-776 (1991)] . The concentration of inhibitor (IC50) which inhibits by 50% the reaction of hydrolysis of nitrocefin by the enzyme is determined. […] Table 13 Test for β-lactamase Inhibitory Activity

KPC-2 = KPC-2 (Klebsiella pneumoniae, UniProt Q9F663); test: as above; assay type: biochemical; settings: nitrocefin as substrate
Procedure: as §2

CTX-M-9 = CTX-M-9 (Escherichia coli, UniProt Q9L5C8); test: as above; assay type: biochemical; settings: nitrocefin as substrate
Procedure: as §2

TEM-1 = TEM-1 (Escherichia coli, UniProt P62593); test: as above; assay type: biochemical; settings: nitrocefin as substrate
Procedure: as §2

Chain of KPC-2 (Q9F663 25-293, looked up, species assumed): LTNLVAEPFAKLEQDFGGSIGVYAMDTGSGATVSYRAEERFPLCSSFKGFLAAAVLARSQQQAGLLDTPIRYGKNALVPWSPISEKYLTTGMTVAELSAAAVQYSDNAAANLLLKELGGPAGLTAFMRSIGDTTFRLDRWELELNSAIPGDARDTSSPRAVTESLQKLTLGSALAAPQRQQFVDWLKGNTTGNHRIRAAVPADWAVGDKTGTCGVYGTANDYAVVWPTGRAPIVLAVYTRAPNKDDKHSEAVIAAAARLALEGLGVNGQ
Chain of TEM-1 (P62593 24-286 limits assumed): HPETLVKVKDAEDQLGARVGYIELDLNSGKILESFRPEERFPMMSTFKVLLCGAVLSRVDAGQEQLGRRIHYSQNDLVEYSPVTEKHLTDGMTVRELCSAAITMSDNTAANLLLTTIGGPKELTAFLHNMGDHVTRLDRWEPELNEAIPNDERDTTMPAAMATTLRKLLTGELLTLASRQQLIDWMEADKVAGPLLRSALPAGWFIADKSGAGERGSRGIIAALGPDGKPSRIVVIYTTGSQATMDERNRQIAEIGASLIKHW
Chain of CMY-2 (Q48434 21-381, species assumed): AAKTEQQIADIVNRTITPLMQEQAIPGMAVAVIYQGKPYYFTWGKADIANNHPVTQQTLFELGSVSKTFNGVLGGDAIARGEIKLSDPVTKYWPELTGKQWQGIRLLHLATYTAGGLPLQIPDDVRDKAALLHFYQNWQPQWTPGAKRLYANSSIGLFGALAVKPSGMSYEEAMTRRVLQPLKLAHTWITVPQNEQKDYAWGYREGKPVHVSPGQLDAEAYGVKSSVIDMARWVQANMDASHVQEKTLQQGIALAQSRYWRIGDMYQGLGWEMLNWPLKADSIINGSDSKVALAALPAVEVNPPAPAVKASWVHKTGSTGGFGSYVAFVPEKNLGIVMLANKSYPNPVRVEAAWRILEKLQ
Chain of CTX-M-9 (Q9L5C8 29-291): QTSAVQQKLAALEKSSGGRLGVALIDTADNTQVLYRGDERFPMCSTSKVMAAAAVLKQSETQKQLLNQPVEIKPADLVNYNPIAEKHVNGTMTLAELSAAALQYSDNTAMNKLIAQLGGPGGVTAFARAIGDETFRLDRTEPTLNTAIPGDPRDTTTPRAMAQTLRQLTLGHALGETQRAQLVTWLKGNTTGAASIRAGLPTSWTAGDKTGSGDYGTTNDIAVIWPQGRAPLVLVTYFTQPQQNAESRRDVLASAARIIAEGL

Row | SMILES | MIC Aztreonam + inhibitor (E. coli JMI 4080) [µg/mL] | MIC Ceftazidime + inhibitor (E. coli JMI 4080) [µg/mL] | MIC Meropenem + inhibitor (E. coli JMI 4080) [µg/mL] | MIC (E. coli JMI 4080) [µg/mL] | MIC Aztreonam + inhibitor (E. coli JMI 2692) [µg/mL] | MIC Ceftazidime + inhibitor (E. coli JMI 2692) [µg/mL] | MIC Meropenem + inhibitor (E. coli JMI 2692) [µg/mL] | MIC (E. coli JMI 2692) [µg/mL] | MIC Aztreonam + inhibitor (K. pneumo JMI 2697) [µg/mL] | MIC Ceftazidime + inhibitor (K. pneumo JMI 2697) [µg/mL] | MIC Meropenem + inhibitor (K. pneumo JMI 2697) [µg/mL] | MIC (K. pneumo JMI 2697) [µg/mL] | MIC Aztreonam + inhibitor (K. pneumo JMI 2693) [µg/mL] | MIC Ceftazidime + inhibitor (K. pneumo JMI 2693) [µg/mL] | MIC Meropenem + inhibitor (K. pneumo JMI 2693) [µg/mL] | MIC (K. pneumo JMI 2693) [µg/mL] | MIC Aztreonam + inhibitor (E.coli JMI 4103) [µg/mL] | MIC Ceftazidime + inhibitor (E.coli JMI 4103) [µg/mL] | MIC Meropenem + inhibitor (E.coli JMI 4103) [µg/mL] | MIC (E.coli JMI 4103) [µg/mL] | further results
1 | CC(=O)NNC(=O)[C@@H]1CC[C@@H]2CN1C(=O)N2OS(=O)(=O)O [Ex. 5, (2S,5R)-N'-acetyl-7-oxo-6-(sulfooxy)-1,6-diazabicyclo[3.2.1]octane-2-carbohydrazide] | ≤0.062 | ≤0.25 | ≤0.031 | 2 | ≤0.062 | ≤0.25 | ≤0.031 | 2 | ≤0.062 | >2 | 0.125 | 16 | 0.5 | 0.5 | 0.125 | > 16 | ≤0.062 | ≤0.25 | ≤0.031 | 8 | MIC ([1]; Isolate No 4, Enzyme VIM-6): 64; MIC ([1]; Isolate No 10, Enzyme IMP-26): 64; MIC Aztreonam + inhibitor (A. baumanii JMI 2659): >4 µg/mL; MIC Ceftazidime + inhibitor (A. baumanii JMI 2659): >16 µg/mL; MIC Meropenem + inhibitor (A. baumanii JMI 2659): >2 µg/mL; MIC (A. baumanii JMI 2659): > 16 µg/mL; MIC Aztreonam + inhibitor (K. pneumo JMI 2673): ≤0.062 µg/mL; MIC Ceftazidime + inhibitor (K. pneumo JMI 2673): ≤0.25 µg/mL; MIC Meropenem + inhibitor (K. pneumo JMI 2673): ≤0.031 µg/mL; MIC Aztreonam + inhibitor (P. aerug JMI 2686): >4 µg/mL; MIC Ceftazidime + inhibitor (P. aerug JMI 2686): >16 µg/mL; MIC Meropenem + inhibitor (P. aerug JMI 2686): >2 µg/mL; IC50 (CMY-2): 0.008 ± 0.001 µM; IC50 (KPC-2): 0.091 ± 0.009 µM; IC50 (CTX-M-9): 0.327 ± 0.02 µM; IC50 (TEM-1): 0.052 ± 0.004 µM
2 | CCC(=O)NNC(=O)[C@@H]1CC[C@@H]2CN1C(=O)N2OS(=O)(=O)O [Ex. 8, (2S,5R)-7-oxo-N'-propanoyl-6-(sulfooxy)-1,6-diazabicyclo[3.2.1]octane-2-carbohydrazide] | ≤0.062 | ≤0.25 | ≤0.0312 | 4 | ≤0.062 | ≤0.25 | 2 | 4 | ≤0.062 | 16 | 2 | > 16 | 2 | 8 | 0.125 | > 16 | ≤0.062 | ≤0.25 | ≤0.0312 | 4 | MIC Aztreonam + inhibitor (A. baumanii JMI 2659): >4 µg/mL; MIC Ceftazidime + inhibitor (A. baumanii JMI 2659): >16 µg/mL; MIC Meropenem + inhibitor (A. baumanii JMI 2659): >2 µg/mL; MIC (A. baumanii JMI 2659): > 16 µg/mL; MIC Aztreonam + inhibitor (K. pneumo JMI 2673): ≤0.062 µg/mL; MIC Ceftazidime + inhibitor (K. pneumo JMI 2673): ≤0.25 µg/mL; MIC Meropenem + inhibitor (K. pneumo JMI 2673): ≤0.0312 µg/mL; MIC Aztreonam + inhibitor (P. aerug JMI 2686): >4 µg/mL; MIC Ceftazidime + inhibitor (P. aerug JMI 2686): >16 µg/mL; MIC Meropenem + inhibitor (P. aerug JMI 2686): >2 µg/mL
